Assay results as given in patent US20110319405A1, “Treatment and prevention of diffuse parenchymal lung disease by selective active-site mTOR inhibitors” (The Board of Trustees of the Leland Stanford Junior …, priority 2010, published 2011).

Legend:
[1] = tested on: Akt (Ser473 and T308) phosphorylation; test: Basal Akt phosphorylation in IPF fibroblasts (Western blot); type: cell-based, human; settings: for suppression of basal Akt (Ser473) phosphorylation: dose-dependent, FIG. 1A/1B
Method: (§1) Cell Culture and Reagents. Lung fibroblasts were isolated from patients undergoing surgical biopsy for the diagnosis of interstitial lung disease or lung transplant for IPF, and non-neoplastic tissue was obtained from patients undergoing surgical lung cancer resection, as described previously (Chang W. T. et al., J Biol Chem., 2001, 276, 2221-7). Fibroblasts were cultured in Dulbecco's modified Eagle's medium (DMEM) supplemented with 10% fetal bovine serum (FBS) at 5% CO2 at 37° C., and were used for studies for up to 5 passages after the initial preparation. For each experiment, cells were plated in culture vessels in DMEM complete medium and cultured until 70-80% in confluence, unless otherwise indicated.
Lung tissue was obtained from patients undergoing surgical biopsy for the diagnosis of interstitial lung disease or lung transplant for IPF, and non-neoplastic tissue was obtained from patients undergoing surgical lung cancer resection. The tissue was minced into small pieces with a scalpel and digested with type I collagenase (1 mg/ml; Invitrogen) and hyaluronidase (125 units/ml; Sigma) at 37° C. with agitation for 18 h in Dulbecco's modified Eagle's medium (DMEM; Invitrogen) supplemented with 10% fetal bovine serum. The dissociated tissues were incubated without shaking for 5 min at room temperature, followed by the separation of cell-enriched supernatant into a new tube. The cell fraction was centrifuged at 250×g for 5 min, and the pellet was then resuspended in DMEM with 10% fetal bovine serum. […] Surviving fibroblasts were cultured in DMEM supplemented with 10% fetal bovine serum at 5% CO2 at 37 ° C. […]
Western Blot Analysis. Western blot analysis and band intensity quantitation were performed as described previously (Chang W. T. et al., J Biol Chem., 2001, 276, 2221-7). Briefly, the protein concentration was measured by Bradford assay (Bio-Rad) according to the manufacturer's instructions. […] The blot was visualized by enhanced chemiluminescence (GE Healthcare) and analyzed using a Kodak Image Station 4000R system (Carestream Health, Rochester, N.Y.). […]

[2] = tested on: Akt (Ser473 and T308) activation; test: TGF-β-mediated activation of Akt in control lung fibroblasts (Western blot); type: cell-based, human
Method: as §1
(§2) Western Blot Analysis. Western blot analysis and band intensity quantitation were performed as described previously (Chang W. T. et al., J Biol Chem., 2001, 276, 2221-7). Briefly, the protein concentration was measured by Bradford assay (Bio-Rad) according to the manufacturer's instructions. An equal amount of protein was separated by SDS-PAGE and transferred to polyvinylidene difluoride membrane. […] The blot was visualized by enhanced chemiluminescence (GE Healthcare) and analyzed using a Kodak Image Station 4000R system (Carestream Health, Rochester, N.Y.).
In further studies, we examined if inhibition of mTORC1 and/or mTORC2 would limit TGF-β-mediated induction of stromal genes.

[3] = tested on: TGF-β-stimulated control lung fibroblasts; test: TGF-β-mediated induction of stromal proteins in control lung fibroblasts (Western blot); type: cell-based, human
Method: as §1, §2
In further studies, we examined if inhibition of mTORC1 and/or mTORC2 would limit TGF-β-mediated induction of stromal genes. […]

[4] = molecular target: mTORC1 (Homo sapiens, UniProt P42345); settings: in vitro; cited from earlier work
[5] = molecular target: mTORC2 (Homo sapiens, UniProt P42345); settings: in vitro; cited from earlier work
[6] = tested on: IPF fibroblasts; test: Basal expression of stromal proteins in IPF fibroblasts (Western blot); type: cell-based, human
Method: as §1
Lung tissue was obtained from patients undergoing surgical biopsy for the diagnosis of interstitial lung disease or lung transplant for IPF, and non-neoplastic tissue was obtained from patients undergoing surgical lung cancer resection. The tissue was minced into small pieces with a scalpel and digested with type I collagenase (1 mg/ml; Invitrogen) and hyaluronidase (125 units/ml; Sigma) at 37° C. with agitation for 18 h in Dulbecco's modified Eagle's medium (DMEM; Invitrogen) supplemented with 10% fetal bovine serum. The dissociated tissues were incubated without shaking for 5 min at room temperature, followed by the separation of cell-enriched supernatant into a new tube. The cell fraction was centrifuged at 250×g for 5 min, and the pellet was then resuspended in DMEM with 10% fetal bovine serum. […] Surviving fibroblasts were cultured in DMEM supplemented with 10% fetal bovine serum at 5% CO2 at 37 ° C. Each fibroblast culture was frozen at its earliest available passage and was used for studies for up to five passages. For each experiment, cells were plated in culture vessels in DMEM and cultured until 70-80% confluent, unless indicated otherwise. Cells were subjected to starvation by washing cells twice with 1× phosphate-buffered saline (PBS), followed by the addition of DMEM and 0.1% serum to each well and incubation for an additional 24 h. In the experiments for cell death induced by Glu-plasminogen (American Diagnostica Inc., Stamford, Conn.), phenol red-free DMEM was used.
as §2, with “N.Y.). […]” for “N.Y.).”

[7] = mice, PP242 30 mg/kg oral daily
Method: Six-week-old male C57BL/6 mice weighing between 20 to 23 g were obtained from The Jackson Laboratory (Bar Harbor, Me.) and all care was in accordance with the National Institutes of Health Guide for Animal Welfare Act. […] All mice were sacrificed on day 14 and the right lungs were first fixed by inflation with buffered 10% formalin solution, then incubated in the same solution for 24 hours. After paraffin-embedding, sections were processed, and stained with hematoxylin and eosin (H&E) for light microscopy. The left lungs were frozen in liquid nitrogen for subsequent analysis of hydroxyproline content.

[8] = tested on: bleomycin-induced pulmonary fibrosis; test: Murine model of bleomycin-induced pulmonary fibrosis
Method: Murine model of bleomycin-induced pulmonary fibrosis. Six-week-old male C57BL/6 mice weighing between 20 to 23 g were obtained from The Jackson Laboratory (Bar Harbor, Me.) and all care was in accordance with the National Institutes of Health Guide for Animal Welfare Act. Mice were administrated 0.1 ml of sterile saline (N=5) or bleomycin (Blenoxane, Novaplus, 1.5 U/kg of body weight; VHA Inc., Nippon Kayaku Co., Tokyo, Japan) at day 0 via intratracheal instillation under anesthesia (Krishna, G. et al., Am J Pathol. 2001, 158, 997-1004). […] All mice were sacrificed on day 14 and the right lungs were first fixed by inflation with buffered 10% formalin solution, then incubated in the same solution for 24 hours. After paraffin-embedding, sections were processed, and stained with hematoxylin and eosin (H&E) for light microscopy. The left lungs were frozen in liquid nitrogen for subsequent analysis of hydroxyproline content.
Histological Scoring of Fibrosis. The severity of fibrosis from each lung section was assessed by Ashcroft score (Ashcroft T. et al., J Clin Pathol, 1988, 41, 467-70). Briefly, the grade of lung fibrosis was scored on a scale from 0 to 8 by examining 30 randomly chosen fields per sample at a magnification of ×100. Criteria for grading lung fibrosis were as follows: grade 0, normal lung; grade 1, minimal fibrous thickening of alveolar or bronchiolar walls; grade 3, moderate thickening of walls without obvious damage to lung architecture; grade 5, increased fibrosis with definite damage to lung structure and formation of fibrous bands or small fibrous masses; grade 7, severe distortion of structure and large fibrous areas; grade 8, total fibrous obliteration of fields. If there was difficulty in deciding between two odd-numbered categories, the field would be given the intervening even-numbered grade.

[9] = control lung fibroblasts + TGF-β
[10] = TGF-β-treated control fibroblasts
[11] = PP242 30 mg/kg oral daily from Day -1, bleomycin 1.5 U/kg intratracheal, Day 14, vs bleomycin alone
[12] = mouse lung, PP242 30 mg/kg oral

Compound: COc1ccc(-c2ccc3c(N4CCOCC4)nc(N4C[C@@H](C)O[C@@H](C)C4)nc3n2)cc1CO [Ku-0063794]
- suppression of basal Akt (T308) phosphorylation ([1]; FIG. 1B): more effective than rapamycin or PP242
- suppression of basal Akt (Ser473) phosphorylation [1]: suppressed
- blocking of TGF-β activation of Akt (Ser473) [2]: blocked
- blocking of TGF-β activation of Akt (T308) [2]: blocked
- inhibition of TGF-β induction of PAI-1 [3, 9]: 30%

Compound: CC(C)n1nc(-c2cccc(C(=O)NC3=NCCS3)c2)c2c(N)ncnc21 [PP30]
- inhibition of mTOR in mTORC1 [4]: inhibit
- inhibition of mTOR in mTORC2 [5]: inhibit

Compound: O=c1[nH]c2ccccc2n1C1CCN(Cc2ccc(-c3nc4cc5[nH]cnc5cc4nc3-c3ccccc3)cc2)CC1 [Akti VIII]
- suppression of basal FN expression (in words) ([6]; FIG. 3C): suppressed
- suppression of basal type I collagen expression (in words) ([6]; FIG. 3C): suppressed
- suppression of basal α-SMA expression (in words) ([6]; FIG. 3C): suppressed
- inhibition of TGF-β induction of FN (in words) [3, 10]: inhibited
- inhibition of TGF-β induction of type I collagen (in words) [3, 10]: inhibited

Compound: CC(C)n1nc(-c2cc3cc(O)ccc3[nH]2)c2c(N)ncnc21 [PP242]
- suppression of basal Akt (Ser473) phosphorylation [1]: suppressed
- tolerability [7]: well tolerated
- reduction in hydroxyproline content [8, 11]: 40%
- reduction in the Ashcroft score [8, 11]: 70%
- positive staining for picosirius red (marker of new collagen synthesis) ([8]; mouse lung after bleomycin, PP242 30 mg/kg oral): marked reduction
- accumulation of α-SMA-positive fibroblasts following bleomycin [8, 12]: inhibited
- bleomycin-mediated induction of MTS1/S100A4 [8, 12]: significantly inhibited
- bleomycin-mediated induction of PAI-1 [8, 12]: a trend, but not a statistically significant inhibition
- bleomycin-mediated induction of SPARC [8, 12]: significantly inhibited
- bleomycin-mediated induction of matrix metalloproteinase 7/matrilysin 1 (MMP-7) [8, 12]: significantly inhibited
- Ashcroft score (scale from 0 to 8) ([8]; saline+PP242 group, no bleomycin): zero

Compound: CO[C@H]1C[C@@H]2CC[C@@H](C)[C@@](O)(O2)C(=O)C(=O)N2CCCC[C@H]2C(=O)O[C@H]([C@H](C)C[C@@H]2CC[C@@H](O)[C@H](OC)C2)CC(=O)[C@H](C)/C=C(\C)[C@@H](O)[C@@H](OC)C(=O)[C@H](C)C[C@H](C)/C=C/C=C/C=C/1C [rapamycin]
- inhibition of basal expression of type I collagen [6]: 50%
- blocking of TGF-β induction of FN [3, 9]: 30%-50%
- blocking of TGF-β induction of SPARC [3, 9]: 30%-50%
- blocking of TGF-β induction of α-SMA [3, 9]: 30%-50%
- inhibition of TGF-β induction of PAI-1 [3, 9]: 30%
- inhibition of type I collagen in the presence of TGF-β ([3]; control lung fibroblasts + TGF-β, FIG. 2C): 45%
